Results reported in US11312704B2, “Inhibitors of cysteine proteases and methods of use thereof” (priority 2020, dated 2022).
Like-named read-outs stand apart in the source and are kept apart here.

Columns and labels:
[1] = test system: cell viability without virus infection; assay: Cytotoxicity under the 229E CPE conditions without virus infection (CellTiter Glo); conditions: read-out: 229E CC50
229E mPRO = 229E mPRO (Human coronavirus 229E (HCoV-229E), UniProt P0C6X1); assay: 229E mPRO enzymatic assay; assay type: biochemical, Human Coronavirus (HCov) 229E
Sequence of 229E mPRO (P0C6X1 2966-3267 limits assumed): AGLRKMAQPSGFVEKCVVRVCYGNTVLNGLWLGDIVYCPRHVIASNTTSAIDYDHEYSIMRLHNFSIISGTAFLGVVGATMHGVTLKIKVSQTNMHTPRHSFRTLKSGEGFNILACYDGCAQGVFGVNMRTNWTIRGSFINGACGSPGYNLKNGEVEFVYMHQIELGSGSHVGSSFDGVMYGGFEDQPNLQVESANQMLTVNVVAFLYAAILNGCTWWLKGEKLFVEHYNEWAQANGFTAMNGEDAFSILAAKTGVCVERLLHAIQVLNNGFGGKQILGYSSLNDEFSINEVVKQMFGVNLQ
Method: Compounds were assayed using standard methods to assess compound activity and IC50. […] The assay buffer contained 20 mM of Tris-HCl (pH 7.3), 100 mM of NaCl, 1 mM of EDTA, 5 mM of TCEP and 0.1% BSA.
The compounds were added to an assay plate.
IC50 values of compounds were calculated with the GraphPad Prism software using the nonlinear regression model of log(inhibitor) vs. response—Variable slope (four parameters). The inhibition activity was calculated using the formula below, IC50 values was calculated using the Inhibition % data. Inhibition %=[(Sample-Average ZPE)/(Average HPE-Average ZPE)]*100%^#

HCoV 229E = HCoV 229E cytopathic effect (CPE) assay; assay type: cell-based, Human Coronavirus (HCov) 229E; conditions: CellTiter Glo
Method: The antiviral activity of compounds was calculated based on the protection of the virus-induced CPE at each concentration normalized by the virus control.
Reagents and instruments used in this assay include luminescent cell viability assay kit CellTiter Glo (Promega) and Microplate Reader Synergy2 (BioTek).
Cytopathic effect (CPE) was measured by CellTiter Glo following the manufacturer's manual. The antiviral activity of compounds was calculated based on the protection of the virus-induced CPE at each concentration normalized by the virus control.

SARS-COV2 Mpro = SARS-COV2 Mpro (Severe acute respiratory syndrome coronavirus 2 (2019-nCoV) (SARS-CoV-2), UniProt P0DTD1); assay: SARS-CoV2 Mpro enzymatic assay; assay type: biochemical; conditions: 25 nM Mpro, 25 μM substrate

| Structure (SMILES) | IC50 (229E mPRO; read-out: 229E mPRO IC50) | EC50 (HCoV 229E) | also measured |
| --- | --- | --- | --- |
| CC(C)CC(NC(=O)c1nc2ncccc2[nH]1)C(=O)NC(C#N)CC1CCNC1=O (single isomer, unassigned) [130 (Isomer 1)] | – | – | CC50 [1]: > 30000 nM |
| COc1cccc2[nH]c(C(=O)N[C@@H](CC(C)C)C(=O)N[C@@H](C[C@@H]3CCNC3=O)C(C#N)N3CCCC3)cc12 (single isomer, unassigned) [331 (Isomer 2)] | < 2000 nM | – | – |
| COc1cccc2[nH]c(C(=O)N[C@@H](CC3CC3)C(=O)N[C@H](C#N)C[C@@H]3CCCNC3=O)cc12 (single isomer, unassigned) [491 (Isomer 1)] | < 2000 nM | – | – |
| COc1cccc2[nH]c(C(=O)N[C@H](CC3CC3)C(=O)N[C@H](C#N)C[C@@H]3CCCNC3=O)cc12 (single isomer, unassigned) [491A (Isomer 2)] | – | – | IC50 (229E mPRO): < 2000 nM |
| CCNC(C#N)[C@H](C[C@@H]1CCNC1=O)NC(=O)[C@H](CC(C)C)NC(=O)c1cc2c(OC)cccc2[nH]1 (single isomer, unassigned) [511 (Isomer 1)] | < 2000 nM | < 2000 nM | – |
| CCNC(C#N)[C@H](C[C@@H]1CCNC1=O)NC(=O)[C@H](CC(C)C)NC(=O)c1cc2c(OC)cccc2[nH]1 (single isomer, unassigned) [511 (Isomer 2)] | < 2000 nM | – | – |
| N#C[C@H](C[C@@H]1CCCNC1=O)NC(=O)[C@H](CC1CC1)NC(=O)c1cc2cccc(Cl)c2[nH]1 (single isomer, unassigned) [639 (Isomer 1)] | < 2000 nM | < 2000 nM | – |
| COc1cccc2[nH]c(C(=O)N3CC4(CCC4)CC3C(=O)N[C@H](C#N)C[C@@H]3CCCNC3=O)cc12 (single isomer, unassigned) [719 (Isomer 2)] | < 2000 nM | < 2000 nM | IC50 (SARS-COV2 Mpro): < 2000 nM |
| COc1cccc2[nH]c(C(=O)N[C@@H](CC(C)C)C(=O)N[C@H](C#N)Cc3cn(C)cn3)cc12 [Compound 227, N-[(1S)-1-[[(1S)-1-cyano-2-(1-methylimidazol-4-yl)ethyl]carbamoyl]-3-methyl-butyl]-4-methoxy-1H-indole-2-carboxamide] | > 30000 nM | – | – |
| COc1cccc2[nH]c(C(=O)N[C@@H](CC(C)C)C(=O)N[C@@H](C[C@@H]3CCNC3=O)C(C#N)Nc3ccccc3)cc12 (some centres unmarked) [Compound 327] | < 2000 nM | – | IC50 (SARS-COV2 Mpro): < 2000 nM |
| CCCOc1cccc2[nH]c(C(=O)N[C@@H](CC(C)C)C(=O)N[C@H](C#N)C[C@@H]3CCNC3=O)cc12 [Compound 379] | < 2000 nM | < 2000 nM | – |
| COc1cccc2[nH]c(C(=O)N3C[C@H](OC)C[C@H]3C(=O)N[C@H](C#N)C[C@@H]3CCNC3=O)cc12 [Compound 407] | < 2000 nM | < 2000 nM | – |
| N#C[C@H](C[C@@H]1CCCNC1=O)NC(=O)[C@H](CC1CC1)NC(=O)c1cc2cc(Cl)ncc2[nH]1 [Compound 717] | – | < 2000 nM | – |
| CC(C)(C)C[C@H](NC(=O)c1cc2cccc(Cl)c2[nH]1)C(=O)N[C@H](C#N)C[C@@H]1CCCNC1=O [Compound 721, 7-chloro-N—((S)-1-(((S)-1-cyano-2-((S)-2-oxopiperidin-3-yl)ethyl)amino)-4,4-dimethyl-1-oxopentan-2-yl)-1H-indole-2-carboxamide] | – | < 2000 nM | – |
| CC(C)(C)C[C@H](NC(=O)c1cc2ccc(Cl)c(Cl)c2[nH]1)C(=O)N[C@H](C#N)C[C@@H]1CCCNC1=O [Compound 725] | – | < 2000 nM | – |
| CC(C)(C)C[C@H](NC(=O)c1cc2c(Cl)ccc(Cl)c2[nH]1)C(=O)N[C@H](C#N)C[C@@H]1CCCNC1=O [Compound 735] | – | < 2000 nM | – |
| COc1ccc(Cl)c2[nH]c(C(=O)N[C@@H](CC(C)(C)C)C(=O)N[C@H](C#N)C[C@@H]3CCCNC3=O)cc12 [Compound 737] | – | < 2000 nM | – |
| COc1c(Cl)ccc2[nH]c(C(=O)N[C@@H](CC(C)(C)C)C(=O)N[C@H](C#N)C[C@@H]3CCCNC3=O)cc12 [Compound 739] | – | < 2000 nM | – |
| CC(C)(C)C[C@H](NC(=O)c1cc2ccc(Cl)cc2[nH]1)C(=O)N[C@H](C#N)C[C@@H]1CCCNC1=O [Compound 745] | – | < 2000 nM | – |
